Test results: ChEMBL document CHEMBL1201862, “PubChem BioAssay data set” (2004)
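96-well plates; 48 h exposure; 5 concentrations. Endpoints by linear interpolation between flanking doses. Not reached: highest tested concentration assigned. GI50: concentration for 50% inhibition of growth.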 Active and inactive are the calls of the source. Cut-off read from the data, not from the text of the source: active = GI50 up to about 1.1 µM and inactive = higher.

Key:
Test in all cases: growth of human tumour cells (NCI), 48 h
LOX IMVI = system: LOX IMVI
TK-10 = system: TK-10
T47D = system: T47D
SK-MEL-28 = system: SK-MEL-28
SNB-19 = system: SNB-19
CAKI-1 = system: CAKI-1
NCI/ADR-RES = system: NCI/ADR-RES
HL-60 = system: HL-60
MCF7 = system: MCF7
HT-29 = system: HT-29
Malme-3M = system: Malme-3M
EKVX = system: EKVX
MDA-MB-435 = system: MDA-MB-435
MDA-MB-231 = system: MDA-MB-231
A498 = system: A498
OVCAR-5 = system: OVCAR-5
OVCAR-3 = system: OVCAR-3
UO-31 = system: UO-31
MOLT-4 = system: MOLT-4
NCI-H226 = system: NCI-H226

Measured: GI50

S=C(S)N1CCN(c2ccc(Cl)c(Cl)c2)CC1
inactive: LOX IMVI 16.6 µM | TK-10 58.6 µM | T47D 16.6 µM | SK-MEL-28 25.4 µM | SNB-19 42.5 µM | CAKI-1 27.5 µM | NCI/ADR-RES 41.4 µM | HL-60 20.9 µM | MCF7 25.8 µM | HT-29 20.8 µM | Malme-3M 24.2 µM | EKVX 12.9 µM | MDA-MB-435 17.6 µM | MDA-MB-231 21.3 µM | A498 18 µM | OVCAR-5 29.9 µM | OVCAR-3 21.3 µM

COC(=O)c1ccc2c(c1)CC1(C2)Cc2cc3c(cc2C1=O)CCC3 (centres undefined)
inactive: UO-31 38.7 µM | LOX IMVI 24.3 µM | TK-10 54.1 µM | T47D 42.5 µM | SK-MEL-28 46.1 µM | SNB-19 > 100 µM | CAKI-1 14.6 µM | NCI/ADR-RES 22 µM | HL-60 16.8 µM | MCF7 20.9 µM | HT-29 15.4 µM | Malme-3M 27.4 µM | EKVX 61.2 µM | MDA-MB-435 23.8 µM | MOLT-4 10.9 µM | MDA-MB-231 36.4 µM | A498 64.3 µM | OVCAR-5 84.1 µM | OVCAR-3 26.7 µM

N=C(N)NCCCC(NC(=O)OCCCCCn1ccc(N)nc1=O)C(=O)O (centres undefined)
inactive: UO-31 > 100 µM | LOX IMVI > 100 µM | TK-10 > 100 µM | T47D > 100 µM | SK-MEL-28 > 100 µM | SNB-19 > 100 µM | NCI-H226 > 100 µM | CAKI-1 > 100 µM | NCI/ADR-RES > 100 µM | HL-60 > 100 µM | MCF7 > 100 µM | HT-29 > 100 µM | EKVX > 100 µM | MDA-MB-435 > 100 µM | MOLT-4 > 100 µM | MDA-MB-231 > 100 µM | A498 > 100 µM | OVCAR-5 > 100 µM | OVCAR-3 > 100 µM

CCOC(=O)N1c2ccccc2S(=O)(=O)c2ccccc21
inactive: UO-31 > 100 µM | LOX IMVI > 100 µM | TK-10 > 100 µM | T47D 67.8 µM | SK-MEL-28 > 100 µM | SNB-19 > 100 µM | NCI-H226 > 100 µM | CAKI-1 > 100 µM | NCI/ADR-RES > 100 µM | HL-60 > 100 µM | MCF7 > 100 µM | HT-29 > 100 µM | EKVX > 100 µM | MDA-MB-435 > 100 µM | MOLT-4 > 100 µM | MDA-MB-231 > 100 µM | A498 > 100 µM | OVCAR-5 > 100 µM | OVCAR-3 > 100 µM
